Assay results as given in US12258355B2, “Probes for imaging huntingtin protein” (CHDI Foundation, Inc., priority 2014, dated 2025).

Biological target: T1, Q46 protein aggregates (Homo sapiens, UniProt P42858)
T1 construct: fused on or other part: GST at the N-terminus, cut off with thrombin before the test to start aggregation; The wells held aggregated Q46 without GST
Assay: Q46 radioligand binding assay (RBA)
Details: 10 nM ligand [3H3]MK-3328
Procedure, shortened: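 Aggregates from thrombin-cleaved GST-Q46 (16 h, 37° C) at 5 μM monomer-equivalent were pre-incubated 20 min at room temperature with compound (1 μM to 30 pM) in 150 mM NaCl, 50 mM Tris pH 8.0, then 60 min at 37° C with 10 nM [^3H3]MK-3328. Bound radioactivity was filtered and counted; IC50 came from a four-parameter global fit normalized to vehicle and 3 μM unlabelled MK-3328.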

T1 sequence (P42858 with tags, fused parts or gaps with the stated changes, form open): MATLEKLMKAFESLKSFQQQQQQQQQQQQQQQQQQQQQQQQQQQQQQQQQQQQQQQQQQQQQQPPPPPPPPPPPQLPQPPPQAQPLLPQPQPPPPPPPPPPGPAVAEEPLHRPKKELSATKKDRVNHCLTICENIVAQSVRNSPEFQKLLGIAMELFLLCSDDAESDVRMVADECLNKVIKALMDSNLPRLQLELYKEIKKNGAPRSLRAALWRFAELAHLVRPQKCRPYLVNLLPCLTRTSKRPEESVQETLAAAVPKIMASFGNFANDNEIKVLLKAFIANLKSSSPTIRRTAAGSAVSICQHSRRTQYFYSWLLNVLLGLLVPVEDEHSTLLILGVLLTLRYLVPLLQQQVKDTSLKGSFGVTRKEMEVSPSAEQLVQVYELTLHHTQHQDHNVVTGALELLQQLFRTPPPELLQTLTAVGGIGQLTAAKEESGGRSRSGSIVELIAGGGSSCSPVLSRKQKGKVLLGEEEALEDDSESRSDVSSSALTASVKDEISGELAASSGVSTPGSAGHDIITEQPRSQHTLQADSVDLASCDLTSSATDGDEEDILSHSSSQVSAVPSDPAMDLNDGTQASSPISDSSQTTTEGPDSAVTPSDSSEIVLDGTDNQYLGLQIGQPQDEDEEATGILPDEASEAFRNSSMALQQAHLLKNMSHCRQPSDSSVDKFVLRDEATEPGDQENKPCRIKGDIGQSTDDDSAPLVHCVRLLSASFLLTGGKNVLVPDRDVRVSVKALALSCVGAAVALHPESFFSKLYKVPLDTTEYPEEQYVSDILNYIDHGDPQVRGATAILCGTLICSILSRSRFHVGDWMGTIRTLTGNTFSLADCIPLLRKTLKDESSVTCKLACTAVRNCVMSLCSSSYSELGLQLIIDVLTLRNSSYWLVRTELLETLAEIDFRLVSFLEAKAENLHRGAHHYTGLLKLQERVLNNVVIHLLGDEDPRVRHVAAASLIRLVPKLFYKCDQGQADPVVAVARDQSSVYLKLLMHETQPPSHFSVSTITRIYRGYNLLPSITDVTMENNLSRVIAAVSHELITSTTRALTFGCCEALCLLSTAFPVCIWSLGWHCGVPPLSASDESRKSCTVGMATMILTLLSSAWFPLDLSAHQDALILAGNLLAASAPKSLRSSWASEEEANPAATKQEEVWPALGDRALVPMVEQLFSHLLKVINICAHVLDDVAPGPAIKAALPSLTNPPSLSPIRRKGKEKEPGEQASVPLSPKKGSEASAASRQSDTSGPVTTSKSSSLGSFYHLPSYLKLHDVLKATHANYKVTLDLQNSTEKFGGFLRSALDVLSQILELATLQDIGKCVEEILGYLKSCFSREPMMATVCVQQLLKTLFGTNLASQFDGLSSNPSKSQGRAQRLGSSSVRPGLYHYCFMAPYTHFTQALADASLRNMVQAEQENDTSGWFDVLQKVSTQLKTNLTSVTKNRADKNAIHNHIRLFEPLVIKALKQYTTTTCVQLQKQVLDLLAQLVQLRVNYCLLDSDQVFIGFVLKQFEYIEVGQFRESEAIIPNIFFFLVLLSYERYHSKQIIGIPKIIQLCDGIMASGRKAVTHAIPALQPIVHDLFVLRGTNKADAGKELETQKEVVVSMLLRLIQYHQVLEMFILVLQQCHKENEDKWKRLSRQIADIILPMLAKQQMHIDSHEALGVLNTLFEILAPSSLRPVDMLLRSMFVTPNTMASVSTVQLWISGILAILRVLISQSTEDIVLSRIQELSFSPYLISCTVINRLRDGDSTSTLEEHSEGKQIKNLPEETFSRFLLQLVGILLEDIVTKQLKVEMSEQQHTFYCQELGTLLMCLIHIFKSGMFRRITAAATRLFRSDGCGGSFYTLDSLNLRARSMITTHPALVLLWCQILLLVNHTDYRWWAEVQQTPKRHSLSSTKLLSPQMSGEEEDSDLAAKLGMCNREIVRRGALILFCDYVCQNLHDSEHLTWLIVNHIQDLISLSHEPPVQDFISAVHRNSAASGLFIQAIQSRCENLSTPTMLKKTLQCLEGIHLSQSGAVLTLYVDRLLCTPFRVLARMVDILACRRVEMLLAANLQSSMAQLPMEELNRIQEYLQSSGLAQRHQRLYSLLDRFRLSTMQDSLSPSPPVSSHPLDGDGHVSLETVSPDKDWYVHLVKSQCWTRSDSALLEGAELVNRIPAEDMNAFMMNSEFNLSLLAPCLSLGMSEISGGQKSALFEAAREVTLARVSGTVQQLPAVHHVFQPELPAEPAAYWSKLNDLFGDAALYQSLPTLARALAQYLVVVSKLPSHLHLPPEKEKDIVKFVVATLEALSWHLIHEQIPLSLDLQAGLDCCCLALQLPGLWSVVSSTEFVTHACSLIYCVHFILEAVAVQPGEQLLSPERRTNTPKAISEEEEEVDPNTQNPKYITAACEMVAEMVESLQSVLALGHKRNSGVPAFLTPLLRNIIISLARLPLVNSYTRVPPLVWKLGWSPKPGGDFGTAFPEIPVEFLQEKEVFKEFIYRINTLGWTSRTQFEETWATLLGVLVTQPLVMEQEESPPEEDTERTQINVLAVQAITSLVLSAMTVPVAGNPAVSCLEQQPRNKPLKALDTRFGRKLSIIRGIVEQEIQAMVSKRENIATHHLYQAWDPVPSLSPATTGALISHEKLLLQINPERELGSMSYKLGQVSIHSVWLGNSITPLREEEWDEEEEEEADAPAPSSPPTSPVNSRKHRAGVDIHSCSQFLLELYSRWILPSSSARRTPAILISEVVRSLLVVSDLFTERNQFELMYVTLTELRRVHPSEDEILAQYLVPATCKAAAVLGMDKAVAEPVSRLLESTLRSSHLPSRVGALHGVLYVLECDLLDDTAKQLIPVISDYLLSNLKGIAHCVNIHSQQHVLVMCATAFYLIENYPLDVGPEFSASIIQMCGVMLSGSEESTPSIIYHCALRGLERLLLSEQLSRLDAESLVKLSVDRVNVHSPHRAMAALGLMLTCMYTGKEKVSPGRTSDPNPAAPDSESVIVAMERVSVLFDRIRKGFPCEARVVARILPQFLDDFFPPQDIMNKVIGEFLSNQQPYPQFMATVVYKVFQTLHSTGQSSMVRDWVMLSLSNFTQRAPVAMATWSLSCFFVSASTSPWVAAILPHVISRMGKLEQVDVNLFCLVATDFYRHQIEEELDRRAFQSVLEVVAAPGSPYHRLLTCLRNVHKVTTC

| SMILES | IC50 [nM] |
| --- | --- |
| O=C(Nc1ccc2oc(-c3cccnc3)nc2c1)c1cccc(Oc2ccccc2)c1 [3-phenoxy-N-[2-(pyridin-3-yl)-1,3-benzoxazol-5-yl]benzamide] | < 100 |
| OC(Cc1ccc2oc(-c3cccnc3)nc2c1)c1ccccn1 (stereo not drawn) [1-(pyridin-2-yl)-2-[2-(pyridin-3-yl)-1,3-benzoxazol-5-yl]ethan-1-ol] | 100 to 500 |
| COc1ccc(C(C)Oc2cnc3oc(-c4cccnc4)nc3c2)nc1 (stereo not drawn) [3-{6-[1-(5-methoxypyridin-2-yl)ethoxy]-[1,3]oxazolo[5,4-b]pyridin-2-yl}pyridine] | 100 to 500 |
| c1cncc(-c2nc3cc(OCc4ccc(OCCN5CCOCC5)cn4)ccc3o2)c1 [5-({5-[2-(morpholin-4-yl)ethoxy]pyridin-2-yl}methoxy)-2-(pyridin-3-yl)-1,3-benzoxazole] | < 100 |
| O=C(Nc1ccc2oc(-c3cccnc3)nc2c1)c1cccc(OCc2ccccc2)c1 [3-(benzyloxy)-N-[2-(pyridin-3-yl)-1,3-benzoxazol-5-yl]benzamide] | < 100 |
| c1cncc(-c2nc3cc(Nc4nnc5ccccn45)ccc3o2)c1 [2-(pyridin-3-yl)-N-{[1,2,4]triazolo[4,3-a]pyridin-3-yl}-1,3-benzoxazol-5-amine] | < 100 |
| O=C(Nc1ccc2oc(-c3cccnc3)nc2c1)c1ccc(COc2ccccc2)cc1 [4-(phenoxymethyl)-N-[2-(pyridin-3-yl)-1,3-benzoxazol-5-yl]benzamide] | < 100 |
| COc1cccc(COc2ccc3oc(-c4cccnc4)nc3c2)c1 [5-[(3-methoxyphenyl)methoxy]-2-(pyridin-3-yl)-1,3-benzoxazole] | < 100 |
| O=C(Nc1ccc2oc(-c3cccnc3)nc2c1)c1nnc(-c2ccccc2)o1 | < 100 |
| COc1ccc(COc2ccc3oc(C4Cc5ccccc5O4)nc3c2)nc1 (stereo not drawn) [2-(2,3-dihydro-1-benzofuran-2-yl)-5-[(5-methoxypyridin-2-yl)methoxy]-1,3-benzoxazole] | < 100 |
| Cn1nc(-c2nc3cc(OCc4ccc(OCCF)cn4)cnc3o2)ccc1=O [6-(6-{[5-(2-fluoroethoxy)pyridin-2-yl]methoxy}-[1,3]oxazolo[5,4-b]pyridin-2-yl)-2-methyl-2,3-dihydropyridazin-3-one] | < 100 |
| Oc1cnc(-c2ccc3oc(-c4cccnc4)nc3c2)cn1 [5-[2-(pyridin-3-yl)-1,3-benzoxazol-5-yl]pyrazin-2-ol] | 100 to 500 |
| O=C(Nc1ccc2oc(-c3cccnc3)nc2c1)c1ccc2nccnc2c1 [N-[2-(pyridin-3-yl)-1,3-benzoxazol-5-yl]quinoxaline-6-carboxamide] | < 100 |
| COc1ccc(COc2ccc3oc(-c4cccc(CN(C)C)c4)nc3c2)nc1 [[(3-{5-[(5-methoxypyridin-2-yl)methoxy]-1,3-benzoxazol-2-yl}phenyl)methyl]dimethylamine] | < 100 |
| COc1ccc(COc2ccc3oc(-c4cccc(OCc5ccccc5)c4)nc3c2)nc1 [2-[3-(benzyloxy)phenyl]-5-[(5-methoxypyridin-2-yl)methoxy]-1,3-benzoxazole] | < 100 |
| COc1ccc(/C=C/c2nc3cc(OCc4ccc(OC)cn4)ccc3o2)cc1 [2-[(E)-2-(4-methoxyphenyl)ethenyl]-5-[(5-methoxypyridin-2-yl)methoxy]-1,3-benzoxazole] | < 100 |
| COCCn1cc(COc2ccc3oc(-c4ccncc4C#N)cc3c2)cn1 [4-(5-{[1-(2-methoxyethyl)-1H-pyrazol-4-yl]methoxy}-1-benzofuran-2-yl)pyridine-3-carbonitrile] | < 100 |
| CNC(=O)c1ccc(-c2nc3cc(OCc4ccc(OC)cn4)cnc3o2)cn1 [5-{6-[(5-methoxypyridin-2-yl)methoxy]-[1,3]oxazolo[5,4-b]pyridin-2-yl}-N-methylpyridine-2-carboxamide] | < 100 |
| CNC(=O)c1ccc(-c2nc3cc(OCc4ccc(OC)cn4)ccc3o2)c[n+]1[O-] [5-{5-[(5-methoxypyridin-2-yl)methoxy]-1,3-benzoxazol-2-yl}-2-(methylcarbamoyl)pyridin-1-ium-1-olate] | < 100 |
| COc1ccc(C(Nc2cnc3oc(-c4cccnc4)nc3c2)C(F)(F)F)cc1 (stereo not drawn) [2-(pyridin-3-yl)-N-[2,2,2-trifluoro-1-(4-methoxyphenyl)ethyl]-[1,3]oxazolo[5,4-b]pyridin-6-amine] | > 50 |
| COc1ccc(CNc2ccc3oc(-c4cccnc4)nc3c2)cc1 [N-[(4-methoxyphenyl)methyl]-2-(pyridin-3-yl)-1,3-benzoxazol-5-amine] | < 100 |
| c1cnc(Nc2ccc3oc(-c4cccnc4)nc3c2)nc1 [2-(pyridin-3-yl)-N-(pyrimidin-2-yl)-1,3-benzoxazol-5-amine] | < 100 |
| COc1ccc(COc2ccc3oc(-c4cnccn4)nc3c2)nc1 [5-[(5-methoxypyridin-2-yl)methoxy]-2-(pyrazin-2-yl)-1,3-benzoxazole] | < 100 |
| COc1ccc(COc2ccc3oc(-c4ccc(=O)n(C)c4)nc3c2)nc1 [5-{5-[(5-methoxypyridin-2-yl)methoxy]-1,3-benzoxazol-2-yl}-1-methyl-1,2-dihydropyridin-2-one] | < 100 |

| SMILES | IC50 [nM] |
| --- | --- |
| O=C(Nc1ccc2oc(-c3cccnc3)nc2c1)c1ccc2c(c1)OCO2 [N-[2-(pyridin-3-yl)-1,3-benzoxazol-5-yl]-2H-1,3-benzodioxole-5-carboxamide] | < 100 |
| O=C(Nc1ccc2oc(-c3cccnc3)nc2c1)c1ccc2occc2c1 [N-[2-(pyridin-3-yl)-1,3-benzoxazol-5-yl]-1-benzofuran-5-carboxamide] | < 100 |
| CNCc1ccc(COc2ccc3oc(-c4cccnc4)nc3c2)cc1 [methyl({[4-({[2-(pyridin-3-yl)-1,3-benzoxazol-5-yl]oxy}methyl)phenyl]methyl})amine] | 100 to 500 |
| O=C(Nc1ccc2oc(-c3ccccc3)nc2c1)c1ccccc1 [N-(2-phenyl-1,3-benzoxazol-5-yl)benzamide] | < 100 |
| Cn1nc(COc2cnc3oc(-c4cccnc4)nc3c2)ccc1=O [2-methyl-6-({[2-(pyridin-3-yl)-[1,3]oxazolo[5,4-b]pyridin-6-yl]oxy}methyl)-2,3-dihydropyridazin-3-one] | 100 to 500 |
| COc1ccc(C(=O)Nc2cnc3oc(-c4cccc(C)c4)nc3c2)cc1 [4-methoxy-N-[2-(3-methylphenyl)[1,3]oxazolo[5,4-b]pyridin-6-yl]benzamide] | < 100 |
| BrC1=C(c2cc3cc(OCc4cccnc4)ccc3o2)N2CCN=C2S1 [3-{[(2-{2-bromo-5H,6H-imidazo[2,1-b][1,3]thiazol-3-yl}-1-benzofuran-5-yl)oxy]methyl}pyridine] | < 100 |
| N#Cc1cccc(C(=O)Nc2ccc3oc(-c4cccnc4)nc3c2)c1 [3-cyano-N-[2-(pyridin-3-yl)-1,3-benzoxazol-5-yl]benzamide] | < 100 |
| COc1ccc(COc2ccc3oc(N4CCNCC4)nc3c2)nc1 [5-[(5-methoxypyridin-2-yl)methoxy]-2-(piperazin-1-yl)-1,3-benzoxazole] | > 50 |
| c1cncc(-c2nc3cc(Nc4ccncn4)ccc3o2)c1 [2-(pyridin-3-yl)-N-(pyrimidin-4-yl)-1,3-benzoxazol-5-amine] | < 100 |
| Cn1cc(-c2nc3cc(OCc4ccc(N)cn4)cnc3o2)cn1 [6-({[2-(1-methyl-1H-pyrazol 4-yl)-[1,3]oxazolo[5,4-b]pyridin-6-yl]oxy}methyl)pyridin-3-amine] | 100 to 500 |
| COc1ccc(C#Cc2cnc3oc(-c4cccnc4)nc3c2)cc1 [3-{6-[2-(4-methoxyphenyl)ethynyl]-[1,3]oxazolo[5,4-b]pyridin-2-yl}pyridine] | < 100 |
| COc1cnc(COc2ccc3oc(-c4cnn(C)c4)nc3c2)cn1 [5-[(5-methoxypyrazin-2-yl)methoxy]-2-(1-methyl-1H-pyrazol-4-yl)-1,3-benzoxazole] | < 100 |
| COc1ccc(C(=O)Nc2ccc3oc(-c4cccc(C)c4)nc3c2)nc1 [5-methoxy-N-[2-(3-methylphenyl)-1,3-benzoxazol-5-yl]pyridine-2-carboxamide] | < 100 |
| Cc1cncc(C(=O)Nc2ccc3oc(-c4cccnc4)nc3c2)c1 [5-methyl-N-[2-(pyridin-3-yl)-1,3-benzoxazol-5-yl]pyridine-3-carboxatmide] | < 100 |
| O=C(Nc1ccc2oc(-c3cccnc3)nc2c1)c1ccc(C(F)(F)F)nc1 [N-[2-(pyridin-3-yl)-1,3-benzoxazol-5-yl]-6-(trifluoromethyl)pyridine-3-carboxamide] | < 100 |
| COc1ccnc(C(=O)Nc2ccc3oc(-c4ccc(=O)n(C)n4)nc3c2)c1 [4-methoxy-N-[2-(1-methyl-6-oxo-1,6-dihydropyridazin-3-yl)-1,3-benzoxazol-5-yl]pyridine-2-carboxamide] | < 100 |
| COc1ccc(NCc2ccc3oc(-c4cccnc4)nc3c2)nc1 [5-methoxy-N-{[2-(pyridin-3-yl)-1,3-benzoxazol-5-yl]methyl}pyridin-2-amine] | 100 to 500 |
| N#Cc1ccc(C(=O)Nc2ccc3oc(-c4cccnc4)nc3c2)cc1 [4-cyano-N-[2-(pyridin-3-yl)-1,3-benzoxazol-5-yl]benzamide] | < 100 |
| Brc1ccc(COc2ccc3oc(-c4cccnc4)nc3c2)nc1 [5-[(5-bromopyridin-2-yl)methoxy]-2-(pyridin-3-yl)-1,3-benzoxazole] | < 100 |
| COc1ccc2c(=O)n(-c3ccc4oc(-c5cccnc5)nc4c3)ccc2c1 [6-methoxy-2-[2-(pyridin-3-yl)-1,3-benzoxazol-5-yl]-1,2-dihydroisoquinolin-1-one] | 100 to 500 |
| Brc1cnccc1-c1nc2ccc(OCCN3CCOCC3)cc2s1 [2-(3-bromopyridin-4-yl)-6-[2-(morpholin-4-yl)ethoxy]-1,3-benzothiazole] | < 100 |
| Cn1cc(C(=O)Nc2ccc3oc(-c4cccnc4)nc3c2)cn1 [1-methyl-N-[2-(pyridin-3-yl)-1,3-benzoxazol-5-yl]-1H-pyrazole-4-carboxamide] | < 100 |
| COc1ccc(COc2ccc3oc(-c4cccc(Oc5ccccc5)c4)nc3c2)nc1 [5-[(5-methoxypyridin-2-yl)methoxy]-2-(3-phenoxyphenyl)-1,3-benzoxazole] | < 100 |
